Assay results: PMC7397249, “Properly Substituted Cyclic Bis-(2-bromobenzylidene) Compounds Behaved as Dual p300/CARM1 Inhibitors and Induced Apoptosis in Cancer Cells” (Molecules, 2020)

Key:
PRMT1 = system: PRMT1; parameters: method as in PMID 21612300; conditions: cited from earlier work
CARM1 [1] = target: T1, CARM1 (Homo sapiens, UniProt Q86X55); parameters: method as in PMID 21612300; conditions: cited from earlier work
T1 sequence (Q86X55 1-608): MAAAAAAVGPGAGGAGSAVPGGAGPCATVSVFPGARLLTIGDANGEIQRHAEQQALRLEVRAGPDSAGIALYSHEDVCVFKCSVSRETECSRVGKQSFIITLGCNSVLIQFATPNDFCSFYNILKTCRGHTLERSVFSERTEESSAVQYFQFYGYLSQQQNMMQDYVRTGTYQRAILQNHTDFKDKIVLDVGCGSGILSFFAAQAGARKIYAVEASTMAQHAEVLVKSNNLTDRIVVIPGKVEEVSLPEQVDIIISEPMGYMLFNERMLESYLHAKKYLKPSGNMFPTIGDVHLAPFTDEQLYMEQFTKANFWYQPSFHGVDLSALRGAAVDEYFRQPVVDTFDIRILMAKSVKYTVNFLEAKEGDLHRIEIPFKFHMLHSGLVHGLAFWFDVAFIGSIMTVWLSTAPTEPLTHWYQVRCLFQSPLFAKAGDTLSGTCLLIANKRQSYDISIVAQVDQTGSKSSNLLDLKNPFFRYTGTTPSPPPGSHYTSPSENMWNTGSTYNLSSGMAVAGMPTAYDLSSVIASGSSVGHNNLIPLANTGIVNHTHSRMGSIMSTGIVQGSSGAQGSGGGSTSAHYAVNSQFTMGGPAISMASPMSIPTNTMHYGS

SET7 = system: SET7; parameters: method as in PMID 21612300; conditions: cited from earlier work
EZH2 = conditions: cited from earlier work
p300 HAT = conditions: cited from earlier work
p300 [2] = target: T2, p300 (Homo sapiens, UniProt Q09472); test: HotSpot HAT activity assay, p300; format: biochemical; conditions: 10-dose, triplicate, from 200 μM; histone H3, [acetyl-3H]-acetyl-CoA
T2 construct: p300 (aa 1284–1673, 30 nM); purchased Reaction Biology Corporation
T2 sequence (Q09472 1284-1673): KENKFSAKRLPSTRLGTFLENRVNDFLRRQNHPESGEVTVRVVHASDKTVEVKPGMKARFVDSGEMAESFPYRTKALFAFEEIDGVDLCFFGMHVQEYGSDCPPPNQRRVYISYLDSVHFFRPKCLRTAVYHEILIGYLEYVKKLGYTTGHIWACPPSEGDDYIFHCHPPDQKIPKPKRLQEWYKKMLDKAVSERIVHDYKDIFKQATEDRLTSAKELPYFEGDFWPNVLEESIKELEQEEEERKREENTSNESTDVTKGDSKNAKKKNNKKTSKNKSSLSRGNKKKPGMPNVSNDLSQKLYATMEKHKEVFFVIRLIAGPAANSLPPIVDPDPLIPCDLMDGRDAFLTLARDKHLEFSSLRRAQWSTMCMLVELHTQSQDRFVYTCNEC
Protocol: (§1) The newly synthesized compounds 4a–n were tested to determine their effects against acetylation and methylation epigenetic targets. First, 4a–n were screened in vitro against the two HAT enzymes p300 and PCAF. […] To determine the activity against SIRT1 and -2, 4a–n were tested starting from 200 μM solutions using a modified Fluor de Lys fluorescence-based assay with amino acids 379–382 (Arg-His-Lys-Lys(Ac)) of human p53 conjugated with aminomethylcoumarin as substrate and NAD^+ as co-substrate. […] Furthermore, 4a–n were tested against a human five-membered Polycomb repressive complex 2 (PRC2) containing EZH2, embryonic ectoderm development (EED), suppressor of zeste 12 (SUZ12), RbAp48, and adipocyte enhancer-binding protein (AEBP2), to assess their capability to inhibit the catalytic unit EZH2.
(§2) The effect of tested derivatives on the catalytic activity of p300 and PCAF was determined in a HotSpot HAT activity assay by Reaction Biology Corporation (Malvern, PA, USA) according to the company’s standard operating procedure. In brief, the recombinant catalytic domains of PCAF (aa 492–658, 250 nM) or p300 (aa 1284–1673, 30 nM) were incubated with histone H3 as substrate (5 µM) and [Acetyl-^3H]-Acetyl Coenzyme A (3 µM) as an acetyl donor in reaction buffer (50 mM Tris-HCl (pH 8.0), 50 mM NaCl, 0.1 mM EDTA, 1 mM DTT, 1 mM PMSF, 1% DMSO) for 1 h at 30 °C in the presence or absence of a dose titration of the compounds. The reaction mixture was delivered to filter-paper for detection. IC50 values were analyzed using Excel and GraphPad Prism 6.0 software (GraphPad Software Inc., San Diego, CA, USA). The experiments for p300 were performed in triplicate.

PCAF = target: T3, PCAF (Homo sapiens, UniProt Q92831); test: HotSpot HAT activity assay, PCAF; format: biochemical; conditions: 10-dose, from 200 μM; histone H3, [acetyl-3H]-acetyl-CoA
T3 construct: PCAF (aa 492–658, 250 nM); purchased Reaction Biology Corporation
Protocol: as §1, §2

SIRT1 = target: T4, SIRT1 (Homo sapiens, UniProt Q96EB6); test: Modified Fluor de Lys fluorescence-based assay, SIRT1; format: biochemical; conditions: from 200 μM; p53 379-382 AMC substrate, NAD+
T4 construct: host or cells: E. coli
Protocol: as §1
(§3) The SIRT inhibition assay was performed using human recombinant SIRT1 and SIRT2 produced in E. coli. Compounds were tested using a modified Fluor de Lys fluorescence-based assay kit based on the method described in the BioMol product sheet (AK-555, AK-556, Milan, Italy). […] The second stage is initiated by the addition of the Developer II (KI176), including nicotinamide (NAM), nicotinamide that stops the SIRT1/2 activity, and the fluorescent signal is produced. The fluorescence was measured on a fluorometric reader (Infinite 200 TECAN, Männedorf, Switzerland) with excitation set at 360 nm and emission detection set at 460 nm.

SIRT2 = target: T5, SIRT2 (Homo sapiens, UniProt Q8IXJ6); test: Modified Fluor de Lys fluorescence-based assay, SIRT2; format: biochemical; conditions: from 200 μM; p53 379-382 AMC substrate, NAD+
T5 construct: host or cells: E. coli
Protocol: as §1, §3

PRC2/EZH2 = PRC2/EZH2 (Homo sapiens, UniProt Q15910); test: EZH2/PRC2 assay (core histone, 3H-SAM); format: biochemical; conditions: 10-dose, duplicate, from 400 μM
Protocol: as §1
The EZH2 substrate (0.05 mg/mL core histone) was added in the freshly prepared reaction buffer (50 mM Tris-HCl (pH 8.0), 50 mM NaCl, 1 mM EDTA, 1 mM DTT, 1 mM PMSF, 1% DMSO). The PRC2 complex (complex of human EZH2, human EED, human SUZ12, human AEBP2, and human RbAp48) was delivered into the substrate solution and the mixture was mixed gently. Afterwards, the tested compounds dissolved in DMSO were delivered into the enzyme/substrate reaction mixture by using Acoustic Technology (Echo 550, LabCyte Inc. Sunnyvale, CA, USA) in nanoliter range, and ^3H-SAM was added into the reaction mixture to initiate the reaction. The reaction mixture was incubated for 1 h at 30 °C and then it was delivered to filter-paper for detection. The data were analyzed using Excel and GraphPad Prism software for IC50 curve fits. The experiments were performed in duplicate.

CARM1 [3] = target: T1, CARM1; test: CARM1 assay (histone H3, 3H-SAM); format: biochemical
Protocol: Histone H3 (5 μM) was added in freshly prepared reaction buffer (50 mM Tris-HCl (pH 8.5), 5 mM MgCl2, 50 mM NaCl, 0.01% Brij35, 1 mM DTT, 1% DMSO). CARM1 was delivered into the substrate solution and the mixture was mixed gently. Afterwards, the tested compounds dissolved in DMSO were delivered into the enzyme/substrate reaction mixture by using Acoustic Technology (Echo 550, LabCyte Inc. Sunnyvale, CA) in nanoliter range, and 1 µM ^3H-SAM was also added into the reaction mixture to initiate the reaction. The reaction mixture was incubated for 1 h at 30 °C and then it was delivered to filter-paper for detection. The data were analyzed using Excel and GraphPad Prism software for IC50 curve fits. The experiments were performed in triplicate.

MCF-7 cells = test: Cell cycle and apoptosis (sub-G1) analysis by FACS in MCF-7 cells; format: cell-based, human; conditions: 5 μM, 30 h
Protocol: (§4) Compounds 4a–n were tested at 5 μM for 30 h in NB4 […] and U937 AML cells among hematological cancers, and in MCF-7 breast cancer and SH-SY5Y neuroblastoma cells among solid cancers, to determine their effects in cell cycle and apoptosis induction.
(§5) In the same cell lines, the induction of apoptosis has been evaluated through the percentage of the sub-G1 peaks.
(§6) For colorimetric exclusion, the cells (2 × 10^5 cells/mL) were plated in multiwells in triplicate. After stimulations at different times and concentrations, cells were diluted in the ratio 1:1 in Trypan Blue (Sigma) and counted with an optical microscope. For cell cycle analyses, cells were plated (2 × 10^5 cells/mL) and were harvested, centrifuged at 1200 rpm for 5 min and resuspended in 500 μL of a hypotonic solution containing 1× PBS, Sodium Citrate 0.1%, 0.1% NP-40, RNAase A and […] Propidium Iodide (PI). After 30 min at room temperature (RT) in the dark, samples were acquired by FACS-Calibur (BD Bioscences, San Jose, CA, USA) using CellQuest software (BD Biosciences). The percentage in different phases of the cell cycle was determined by ModFit LT V3 software (Verity). All experiments were performed in triplicate. Cell death was measured as percentage of cells in sub-G1 phase as in [30].

NB4 cells = test: Cell cycle and apoptosis (sub-G1) analysis by FACS in NB4 cells; format: cell-based, human; conditions: 5 μM, 30 h
Protocol: as §4, §5, §6

p300 [4] = test: Western blot of acetylation marks (p300 inhibition) in MCF-7 cells; format: cell-based, human; conditions: 5 μM, 30 h
Protocol: (§7) In MCF-7 cells, the levels of acetyl-H3, acetyl-H4, H3K27me3, and H3R17me2 were detected by western blot analyses as functional tests for p300 (acH3 and acH4), EZH2 (H3K27me3) and CARM1 (H3R17me2) inhibition in cells, respectively (Figure 5).
(§8) The procedures were performed as described in [30, 31]. Primary antibodies used were: Ac-H3 (Millipore, Milan, Italy); Ac-H4 (Millipore, Milan, Italy); Ac-H3K9-14 (Diagenode, Ougrée, Belgium); Ac-α-tubulin (Sigma-Aldrich), H3K27me3 (Diagenode); H3R17me2 (Diagenode); EZH2 (Abcam, Cambridge, UK). H3 (Sigma-Aldrich), H4 (Abcam), GAPDH (Sigma) and ERKs (Santa Cruz, Biotechnology, TX, USA) were used to normalize the total protein extracts (see also Supplementary Material).

CARM1 [5] = test: Western blot of H3R17me2 (CARM1) in MCF-7 cells; format: cell-based, human; conditions: 5 μM, 30 h
Protocol: as §7, §8

T5 sequence (Q8IXJ6 whole entry): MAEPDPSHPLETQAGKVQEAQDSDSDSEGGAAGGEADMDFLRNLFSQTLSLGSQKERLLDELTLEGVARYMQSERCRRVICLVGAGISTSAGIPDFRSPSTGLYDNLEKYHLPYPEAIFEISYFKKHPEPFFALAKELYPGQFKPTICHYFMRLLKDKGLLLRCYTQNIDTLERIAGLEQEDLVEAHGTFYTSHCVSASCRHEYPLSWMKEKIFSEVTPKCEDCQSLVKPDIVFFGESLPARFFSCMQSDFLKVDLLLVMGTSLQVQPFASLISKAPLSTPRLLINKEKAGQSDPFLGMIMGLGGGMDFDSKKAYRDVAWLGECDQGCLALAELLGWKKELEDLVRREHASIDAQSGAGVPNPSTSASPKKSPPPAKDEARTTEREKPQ
T3 sequence (Q92831 492-658): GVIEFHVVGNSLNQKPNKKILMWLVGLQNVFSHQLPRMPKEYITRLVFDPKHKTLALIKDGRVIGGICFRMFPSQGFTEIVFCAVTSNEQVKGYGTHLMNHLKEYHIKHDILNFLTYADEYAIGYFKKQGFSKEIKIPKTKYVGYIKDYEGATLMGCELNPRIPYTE
Chain of PRC2/EZH2 (Q15022 whole entry): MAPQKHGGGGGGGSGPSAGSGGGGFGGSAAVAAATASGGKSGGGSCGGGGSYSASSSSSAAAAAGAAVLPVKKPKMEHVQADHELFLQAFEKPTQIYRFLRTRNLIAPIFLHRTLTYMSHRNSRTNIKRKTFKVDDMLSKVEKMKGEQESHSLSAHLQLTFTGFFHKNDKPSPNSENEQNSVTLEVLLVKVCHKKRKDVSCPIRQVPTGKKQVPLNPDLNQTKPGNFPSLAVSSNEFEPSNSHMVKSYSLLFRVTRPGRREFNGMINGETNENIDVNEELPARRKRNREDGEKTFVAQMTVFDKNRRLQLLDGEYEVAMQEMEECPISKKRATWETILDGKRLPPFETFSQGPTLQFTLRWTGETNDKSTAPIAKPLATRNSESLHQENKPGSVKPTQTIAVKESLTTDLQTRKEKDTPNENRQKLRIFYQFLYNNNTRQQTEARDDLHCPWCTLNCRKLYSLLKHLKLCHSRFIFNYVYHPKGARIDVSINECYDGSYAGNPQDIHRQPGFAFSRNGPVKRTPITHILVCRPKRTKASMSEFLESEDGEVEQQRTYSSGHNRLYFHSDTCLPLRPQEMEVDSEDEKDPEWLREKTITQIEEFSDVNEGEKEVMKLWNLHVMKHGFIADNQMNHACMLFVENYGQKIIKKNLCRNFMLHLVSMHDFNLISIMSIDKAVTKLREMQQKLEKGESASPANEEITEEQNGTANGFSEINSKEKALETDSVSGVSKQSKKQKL
Chain of PRC2/EZH2 (Q09028 whole entry, further chain): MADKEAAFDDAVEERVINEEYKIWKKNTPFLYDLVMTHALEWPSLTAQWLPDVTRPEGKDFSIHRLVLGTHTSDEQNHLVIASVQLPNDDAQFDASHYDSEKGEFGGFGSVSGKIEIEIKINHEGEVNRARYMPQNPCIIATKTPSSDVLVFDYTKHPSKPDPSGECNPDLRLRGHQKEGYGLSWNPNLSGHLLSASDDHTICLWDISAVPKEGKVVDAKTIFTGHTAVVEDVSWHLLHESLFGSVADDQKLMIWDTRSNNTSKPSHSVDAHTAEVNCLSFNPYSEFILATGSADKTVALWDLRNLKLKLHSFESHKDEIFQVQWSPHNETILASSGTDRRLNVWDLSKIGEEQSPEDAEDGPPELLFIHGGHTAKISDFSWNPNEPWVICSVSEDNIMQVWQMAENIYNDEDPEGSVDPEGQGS
Chain of PRC2/EZH2 (Q6ZN18 whole entry, further chain): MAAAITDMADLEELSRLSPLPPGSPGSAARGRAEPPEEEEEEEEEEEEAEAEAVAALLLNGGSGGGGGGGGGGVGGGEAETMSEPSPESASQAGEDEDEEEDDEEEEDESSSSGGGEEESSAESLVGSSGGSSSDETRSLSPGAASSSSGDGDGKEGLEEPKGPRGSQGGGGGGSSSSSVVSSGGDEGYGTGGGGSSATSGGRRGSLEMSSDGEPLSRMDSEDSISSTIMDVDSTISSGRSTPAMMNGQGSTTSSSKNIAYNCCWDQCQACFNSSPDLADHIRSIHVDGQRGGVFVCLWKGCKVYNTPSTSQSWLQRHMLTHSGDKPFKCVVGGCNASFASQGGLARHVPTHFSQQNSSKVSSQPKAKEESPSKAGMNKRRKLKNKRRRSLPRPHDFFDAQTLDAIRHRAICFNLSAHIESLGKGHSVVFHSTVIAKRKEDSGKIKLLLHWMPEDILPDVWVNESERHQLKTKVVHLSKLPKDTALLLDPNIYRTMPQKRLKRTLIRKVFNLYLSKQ
Chain of PRC2/EZH2 (Q15910 whole entry): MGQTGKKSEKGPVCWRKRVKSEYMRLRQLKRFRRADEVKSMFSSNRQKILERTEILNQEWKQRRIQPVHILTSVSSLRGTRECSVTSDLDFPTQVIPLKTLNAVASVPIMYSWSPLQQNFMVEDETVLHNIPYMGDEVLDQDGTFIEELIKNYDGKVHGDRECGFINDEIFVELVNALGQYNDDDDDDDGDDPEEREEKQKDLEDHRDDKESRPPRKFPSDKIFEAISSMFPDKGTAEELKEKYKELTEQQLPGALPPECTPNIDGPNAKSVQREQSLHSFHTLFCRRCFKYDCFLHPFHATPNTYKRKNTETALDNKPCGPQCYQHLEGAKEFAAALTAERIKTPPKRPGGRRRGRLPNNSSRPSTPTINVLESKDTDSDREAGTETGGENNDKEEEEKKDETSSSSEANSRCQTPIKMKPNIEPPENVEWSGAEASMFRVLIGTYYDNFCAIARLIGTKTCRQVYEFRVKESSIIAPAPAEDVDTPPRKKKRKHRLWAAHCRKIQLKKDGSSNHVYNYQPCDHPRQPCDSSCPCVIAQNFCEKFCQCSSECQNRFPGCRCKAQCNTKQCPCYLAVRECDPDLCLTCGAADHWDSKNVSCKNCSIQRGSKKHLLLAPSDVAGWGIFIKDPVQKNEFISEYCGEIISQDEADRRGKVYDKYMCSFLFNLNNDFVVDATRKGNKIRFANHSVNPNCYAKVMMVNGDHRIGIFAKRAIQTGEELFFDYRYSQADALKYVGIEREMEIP
Chain of PRC2/EZH2 (O75530 whole entry, further chain): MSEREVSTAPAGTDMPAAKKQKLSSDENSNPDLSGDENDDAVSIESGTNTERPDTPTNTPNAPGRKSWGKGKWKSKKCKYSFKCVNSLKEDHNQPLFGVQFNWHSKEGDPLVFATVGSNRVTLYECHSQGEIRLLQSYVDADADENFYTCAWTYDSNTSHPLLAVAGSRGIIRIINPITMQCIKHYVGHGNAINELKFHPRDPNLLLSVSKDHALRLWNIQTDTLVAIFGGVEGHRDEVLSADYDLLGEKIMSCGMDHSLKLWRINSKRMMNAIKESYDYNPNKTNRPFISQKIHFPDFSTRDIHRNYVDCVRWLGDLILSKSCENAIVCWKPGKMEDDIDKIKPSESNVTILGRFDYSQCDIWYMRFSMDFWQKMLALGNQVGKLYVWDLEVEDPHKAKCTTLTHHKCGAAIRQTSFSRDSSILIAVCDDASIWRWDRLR
T4 sequence (Q96EB6 whole entry): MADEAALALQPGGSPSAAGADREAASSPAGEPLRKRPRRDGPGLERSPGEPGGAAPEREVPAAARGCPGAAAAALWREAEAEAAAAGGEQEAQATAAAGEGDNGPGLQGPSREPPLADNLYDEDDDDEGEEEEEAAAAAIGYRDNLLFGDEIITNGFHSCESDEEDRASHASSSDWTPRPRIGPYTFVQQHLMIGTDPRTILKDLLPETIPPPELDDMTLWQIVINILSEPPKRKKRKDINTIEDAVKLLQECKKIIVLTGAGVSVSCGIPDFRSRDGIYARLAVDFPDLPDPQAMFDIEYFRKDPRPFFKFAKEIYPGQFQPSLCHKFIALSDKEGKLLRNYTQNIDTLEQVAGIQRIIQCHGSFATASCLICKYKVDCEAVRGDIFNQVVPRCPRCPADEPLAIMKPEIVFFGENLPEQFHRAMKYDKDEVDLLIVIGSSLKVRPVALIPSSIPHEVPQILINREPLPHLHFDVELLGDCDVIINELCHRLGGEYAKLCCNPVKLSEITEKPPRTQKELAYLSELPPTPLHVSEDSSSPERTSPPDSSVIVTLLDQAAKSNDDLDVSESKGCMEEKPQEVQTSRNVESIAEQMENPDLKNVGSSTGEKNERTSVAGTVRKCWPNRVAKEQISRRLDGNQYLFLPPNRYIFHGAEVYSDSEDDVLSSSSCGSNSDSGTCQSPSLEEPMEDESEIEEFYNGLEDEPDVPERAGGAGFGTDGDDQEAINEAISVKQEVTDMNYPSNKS

SMILES	IC50 (p300 [2]) [µM]	IC50 (PCAF) [µM]	IC50 (SIRT1) [µM]	IC50 (SIRT2) [µM]	IC50 (PRC2/EZH2) [µM]	IC50 (CARM1 [3]) [µM]	cell cycle: block in G1/S phase with almost total absence of cells in the G2/M phase (MCF-7 cells)	further results
O=C1/C(=C/c2ccc(O)c(Br)c2)CN(Cc2ccccc2)C/C1=C\c1ccc(O)c(Br)c1 [Compound 2]								PRMT1 inhibition (active/inactive) (PRMT1): inactive; CARM1 inhibition (active/inactive) (CARM1 [1]): active; SET7 inhibition (active/inactive) (SET7): inactive; EZH2 inhibition (active/inactive) (EZH2; ref unpublished results): active; p300 HAT inhibition (active/inactive) (p300 HAT): inactive
O=C1/C(=C/c2cccc(Br)c2)CN(Cc2ccccc2)C/C1=C\c1cccc(Br)c1 [Compound 3, 1-benzyl-3,5-bis((E)-3-bromobenzylidene)piperidin-4-one]								EZH2 inhibition (in words) (EZH2): dual p300/EZH2 inhibitor; p300 inhibition (in words) (p300 HAT): dual p300/EZH2 inhibitor
O=C1/C(=C/c2ccccc2Br)CCC/C1=C\c1ccccc1Br [Compound 4a, 2,6-bis((E)-2-bromobenzylidene)cyclohexan-1-one]	1.38 ± 0.24	> 200	> 200	> 200	117 ± 6	16.8 ± 3.4	almost total absence of cells	
O=C1/C(=C/c2ccccc2Br)COC/C1=C\c1ccccc1Br [Compound 4b, 3,5-bis((E)-2-bromobenzylidene)tetrahydro-4H-pyran-4-one]	2.56 ± 0.23	> 200	> 200	> 200		23.3 ± 0.5		
O=C1/C(=C/c2ccccc2Br)CNC/C1=C\c1ccccc1Br [Compound 4c, 3,5-bis((E)-2-bromobenzylidene)piperidin-4-one]	23.2 ± 0.51	> 200	> 200	> 200		44.8 ± 6	almost total absence of cells	
CN1C/C(=C\c2ccccc2Br)C(=O)/C(=C/c2ccccc2Br)C1 [Compound 4d, 3,5-bis((E)-2-bromobenzylidene)-1-methylpiperidin-4-one]	2.66 ± 0.15	> 200	> 200	> 200	46.7 ± 1.1	3.24 ± 1.22	almost total absence of cells	induction of apoptosis, % sub-G1 peaks (NB4 cells): 30 to 40%
O=C1/C(=C/c2ccccc2Br)CN(CCC(=O)c2ccccc2)C/C1=C\c1ccccc1Br [Compound 4i, 3,5-Bis((E)-2-bromobenzylidene)-1-(3-oxo-3-phenylpropyl)piperidin-4-one]	1.57 ± 0.72	> 200	> 200	> 200	60.6 ± 10.5	6.96 ± 0.9		levels of acetyl-H4 (p300 [4]): decrease of the acetylation levels; levels of acetyl-α-tubulin (p300 [4]): decrease of the acetylation levels; levels of H3R17me2 (CARM1 [5]): most effective; melting point: 95 to 97 °C
CCCCCCCCCCCCCCCc1cccc(O)c1C(=O)O [anacardic acid, reference compound]		40 ± 10.9						
